Reference: patent publication US8802696B2, “7-([1,2,4]triazolo[1,5-a]pyridin-6-yl)-4-(3,4-dichlorophenyl)-1,2,3,4-tetrahydroisoqu inoli and use thereof” (Albany Molecular Research, Inc., priority 2009, dated 2014)
Counter-ions that a name gives are not always drawn.

Columns and labels:
hDAT = molecular target: T1, hDAT (Homo sapiens, UniProt Q01959); experiment: DAT radioligand binding assay ([125I]RTI-55, HEK-293 membranes); conditions: recombinant HEK-293 membranes
T1 construct: expressed in transfected cells; host or cells: HEK-293
Description: (§1) Recombinant HEK-293 cells expressing either the hSERT, hDAT, or hNET proteins were harvested from T-175 flasks as follows. The medium was removed from the flasks and the cells rinsed with HBSS without Ca and without Mg. The cells were then incubated for 5-10 minutes in 10 mM Tris-Cl, pH 7.5, 5 mM EDTA before the cells were lifted with a combination of pipetting and scraping, as needed. The cell suspension was collected into centrifuge bottles and homogenized for 30 seconds with a Polytron homogenizer. The suspension was centrifuged for 30 minutes at 32,000×g, 4° C. The supernatant was decanted and the pellet resuspended and homogenized in 50 mM Tris-Cl, pH 7.5, 1 mM EDTA for 10 seconds. […]
(§2) Compounds were dissolved in 100% DMSO at a concentration 100 times the desired highest assay concentration, serially diluted 1:3 in 100% DMSO, and 0.4 μl/well of each solution was dispensed to a Nunc polypropylene, round bottom, 384-well plate. […] The plates were air-dried overnight, 12 μl/well of MicroScint scintillation fluid added, and the plates counted in a Trilux.
(§3) The raw data was normalized to percent inhibition using control wells defining 0% (DMSO only) and 100% (selective inhibitor) inhibition which were run on each plate. […] The radioligand concentration chosen for each assay corresponds to the Kd concentration determined through saturation binding analysis for each assay.

hSERT = molecular target: T2, hSERT (Homo sapiens, UniProt P31645); experiment: SERT radioligand binding assay ([125I]RTI-55, HEK-293 membranes); conditions: recombinant HEK-293 membranes
T2 construct: expressed in transfected cells; host or cells: HEK-293
Description: as §1, with “seconds. The suspension was then centrifuged again for 30 minutes at 32,000×g, 4° C. The supernatant was decanted and the pellet resuspended in 50 mM Tris-Cl, pH 7.5, 1 mM EDTA and briefly homogenized.” for “seconds.”
as §2
The radioligand concentration chosen for each assay corresponds to the Kd concentration determined through saturation binding analysis for each assay.

hNET = molecular target: T3, hNET (Homo sapiens, UniProt P23975); experiment: NET radioligand binding assay ([3H]nisoxetine, HEK-293 membranes); conditions: recombinant HEK-293 membranes
T3 construct: expressed in transfected cells; host or cells: HEK-293
Description: as §1
as §2, with “1.0” for “0.4”
as §3

SERT = experiment: Ex vivo binding occupancy assay, SERT ([3H]citalopram, brain tissue); conditions: dose 1 mg/kg, time point 3 hour, ex vivo binding in brain tissue
From the text: The general procedure for brain tissue collection and transporter occupancy assessment is briefly described as follows. Mice were sacrificed by asphyxiation in CO2, rats by decapitation and dogs by IV injection of euthanasia solution. For mice and rats, after the brains were removed from the skull, the forebrain tissue (removal of the brainstem and cerebellum) was used for SERT, NET, and DAT occupancy assessment. In dogs, the striatum was dissected for DAT occupancy and the remaining forebrain tissue (without the striatum, brainstem, and cerebellum) was used for SERT and NET occupancy assessment. The brain tissues were frozen in chilled isopentane and stored at −80° C. until homogenization.
The brain tissues were thawed and then homogenized using a polytron homogenizer (Kinematica). Sample aliquots were frozen immediately and stored at −80° C. Protein content was measured for each sample using a Coomassie protein assay kit (Pierce).
On the day of ex vivo binding for occupancy assessment, frozen sample aliquots were thawed and needle homogenized, and 100 μg of the tissue was incubated for SERT, NET, and DAT binding under assay conditions summarized in Table 1. […] Radioligand was measured using a Wallac Microbeta liquid scintillation counter.
The specific binding was calculated by subtracting the value of the non-specific binding from that of the total binding in each sample. […]

T2 sequence (P31645 whole entry): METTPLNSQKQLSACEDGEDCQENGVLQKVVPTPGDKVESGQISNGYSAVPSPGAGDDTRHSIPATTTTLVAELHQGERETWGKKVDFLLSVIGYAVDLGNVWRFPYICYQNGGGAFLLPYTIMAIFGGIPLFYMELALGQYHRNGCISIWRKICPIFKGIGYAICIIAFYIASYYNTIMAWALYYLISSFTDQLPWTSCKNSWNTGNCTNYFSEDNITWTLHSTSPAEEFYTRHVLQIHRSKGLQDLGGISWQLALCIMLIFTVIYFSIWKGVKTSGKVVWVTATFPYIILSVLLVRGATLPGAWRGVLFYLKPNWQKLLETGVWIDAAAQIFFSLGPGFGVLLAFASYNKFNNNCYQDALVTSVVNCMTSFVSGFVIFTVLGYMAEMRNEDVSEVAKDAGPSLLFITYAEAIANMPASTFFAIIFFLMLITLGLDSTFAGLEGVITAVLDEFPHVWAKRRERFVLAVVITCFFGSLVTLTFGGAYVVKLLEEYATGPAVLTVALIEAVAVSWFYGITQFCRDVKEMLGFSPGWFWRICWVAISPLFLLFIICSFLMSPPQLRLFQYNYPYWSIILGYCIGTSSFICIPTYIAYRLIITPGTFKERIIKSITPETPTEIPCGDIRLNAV
T1 sequence (Q01959 whole entry): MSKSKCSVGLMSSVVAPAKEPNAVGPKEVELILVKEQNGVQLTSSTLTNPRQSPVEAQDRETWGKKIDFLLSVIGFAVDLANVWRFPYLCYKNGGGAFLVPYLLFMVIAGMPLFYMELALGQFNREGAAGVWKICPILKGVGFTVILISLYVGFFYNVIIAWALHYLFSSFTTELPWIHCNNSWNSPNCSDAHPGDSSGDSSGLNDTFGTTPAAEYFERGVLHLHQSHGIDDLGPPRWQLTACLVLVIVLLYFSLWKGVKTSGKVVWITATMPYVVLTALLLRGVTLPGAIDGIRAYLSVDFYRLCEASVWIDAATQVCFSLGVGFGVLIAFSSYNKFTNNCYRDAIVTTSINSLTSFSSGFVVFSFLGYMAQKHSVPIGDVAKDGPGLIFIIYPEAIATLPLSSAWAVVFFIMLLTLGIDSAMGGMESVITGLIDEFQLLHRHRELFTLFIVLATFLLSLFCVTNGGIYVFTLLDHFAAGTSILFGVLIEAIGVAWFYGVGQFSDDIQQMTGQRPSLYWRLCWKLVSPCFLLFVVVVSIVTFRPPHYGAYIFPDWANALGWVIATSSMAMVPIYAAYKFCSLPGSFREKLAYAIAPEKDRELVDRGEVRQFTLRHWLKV
T3 sequence (P23975 whole entry): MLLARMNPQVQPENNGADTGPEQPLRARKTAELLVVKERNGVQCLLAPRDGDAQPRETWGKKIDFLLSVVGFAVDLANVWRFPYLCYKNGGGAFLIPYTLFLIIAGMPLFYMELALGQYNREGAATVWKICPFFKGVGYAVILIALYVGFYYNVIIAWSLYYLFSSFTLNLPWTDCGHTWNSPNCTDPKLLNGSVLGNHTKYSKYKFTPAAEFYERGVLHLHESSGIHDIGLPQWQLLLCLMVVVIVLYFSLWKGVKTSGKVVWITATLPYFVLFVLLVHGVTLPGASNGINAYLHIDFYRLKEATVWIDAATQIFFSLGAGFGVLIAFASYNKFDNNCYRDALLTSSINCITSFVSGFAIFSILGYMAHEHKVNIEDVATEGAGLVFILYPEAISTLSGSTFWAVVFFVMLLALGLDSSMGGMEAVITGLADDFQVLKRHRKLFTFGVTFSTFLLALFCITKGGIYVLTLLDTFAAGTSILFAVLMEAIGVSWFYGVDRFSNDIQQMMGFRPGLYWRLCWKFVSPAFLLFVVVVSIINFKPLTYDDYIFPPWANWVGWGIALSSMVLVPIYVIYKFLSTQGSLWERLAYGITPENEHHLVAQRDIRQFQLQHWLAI

Row | Structure (SMILES) | IC50 (hDAT) | IC50 (hSERT) | IC50 (hNET) | SERT Occupancy % (SERT) | SERT Occupancy % (SERT; L-tartrate salt)
1 | Clc1ccc(C2CNCc3cc(-c4ccc5ncnn5c4)ccc32)cc1Cl (single isomer, unassigned; (-)) [Example 1 (−)-enantiomer, (−)-7-([1,2,4]triazolo[1,5-a]pyridin-6-yl)-4-(3,4-dichlorophenyl)-1,2,3,4-tetrahydroisoquinoline] | 105 nM | 4.2 nM | 4.8 nM | 41% | 
2 | Clc1ccc(C2CNCc3cc(-c4ccc5ncnn5c4)ccc32)cc1Cl (single isomer, unassigned; enantiomer 7) [Example 1 (+)-enantiomer, 7-([1,2,4]triazolo[1,5-a]pyridin-6-yl)-4-(3,4-dichlorophenyl)-1,2,3,4-tetrahydroisoquinoline, L-tartrate salt] | 30.8 nM | 1.8 nM | 26 nM |  | 75%
